Measured values: US20210283139A1, “BIFUNCTIONAL MOLECULES FOR TARGETING UCHL5” (AMPHISTA THERAPEUTICS LTD, priority 2018, published 2021)

How the values were obtained:
Assay type in all cases: cell-based
[1] = biological target: Brd2 (Homo sapiens, UniProt P25440); test: Concentration-dependent BET degradation, immunoblot, HEK293 cells; set-up: endogenous in cells; host or cells: HEK293; details: HEK293, Brd2, 6 h treatment, 1 nM-10 μM; for Dmax: read-out: Dmax (%) maximum degradation observed
Method: (§1) Cell culture. HeLa (CCL-2) and HEK293 (CRL-1573) cells were purchased from ATCC and cultured in DMEM medium (Gibco) supplemented with 10% FBS, 100 μg/mL penicillin/streptomycin and L-glutamine. Cells were grown at 37° C. and 5% CO2, and were kept no longer than 30 passages. All cell lines were routinely tested for mycoplasma contamination using MycoAlert kit from Lonza.
(§2) Immunoblotting. proteins were separated by SDS-PAGE on NuPage 4-12% Bis-Tris gels, followed by transfer to Amersham Protran 0.45 NC nitrocellulose membrane (GE Healthcare) using wet transfer. Membranes were blocked using 5% w/v milk in Tris-buffered saline (TBS) with 0.1% Tween-20. Blots were probed (overnight at 4° C.) using anti-Brd2 (Abcam ab139690, 1:2,000 dilution), anti-Brd3 (Abcam ab50818, 1:500 dilution), and anti-Brd4 (Abcam ab128874, 1:1,000 dilution) primary antibodies, as appropriate. The next day, blots were washed with TBST and incubated (1 hr at RT) with anti-Tubulin hFAB-rhodamine (BioRad, 12004166) primary antibody, and either anti-rabbit IRDye 800CW (Licor 1:10,000 dilution) or anti-mouse IRDye 800CW (Licor 1:10,000 dilution) secondary antibody. Blots were developed using a Bio-Rad ChemiDoc MP Imaging System, and band quantification was performed using Image Studio software (LiCor). Band intensities were normalized to the tubulin loading control and reported as % of the average 0.1% DMSO vehicle intensity. Degradation data was plotted and analysed using Prism (Graphpad, version 8).
(§3) HeLa (5×10^5) and HEK293 (1×10^6) cells were seeded in standard 6-well plates (2 mL medium) overnight before treatment with compounds at the desired concentration (1 nM-10 μM), with a final DMSO concentration of 0.1% v/v. After 6 h treatment time, cells were washed with DPBS (Gibco) and lysed using 85 μL RIPA buffer (Sigma-Aldrich) supplemented with cOmplete Mini EDTA-free protease inhibitor cocktail (Roche) and benzonase. Lysates were clarified by centrifugation (20,000g, 10 min, 4° C.) and the total protein content of the supernatant was quantified using a Bradford colorimetric assay. Samples were prepared using equal amounts of total protein and LDS sample buffer (Invitrogen.
(§4) Representative blots in FIG. 3 show depletion of Brd2, Brd3 and Brd4 protein levels following treatment with increasing concentrations of representative compounds. Band intensities were normalized to the β-tubulin loading control and reported as % of the average 0.1% DMSO vehicle intensity, with each point representing mean±SEM of two independent experiments (n=2). Degradation data was plotted and analysed using Prism (Graphpad, version 8)

[2] = biological target: Brd3 (Homo sapiens, UniProt Q15059); test: as above; set-up: endogenous in cells; host or cells: HEK293; details: HEK293, Brd3, 6 h treatment, 1 nM-10 μM; for Dmax: read-out: Dmax (%) maximum degradation observed
Sequence of Brd3 (Q15059 whole entry): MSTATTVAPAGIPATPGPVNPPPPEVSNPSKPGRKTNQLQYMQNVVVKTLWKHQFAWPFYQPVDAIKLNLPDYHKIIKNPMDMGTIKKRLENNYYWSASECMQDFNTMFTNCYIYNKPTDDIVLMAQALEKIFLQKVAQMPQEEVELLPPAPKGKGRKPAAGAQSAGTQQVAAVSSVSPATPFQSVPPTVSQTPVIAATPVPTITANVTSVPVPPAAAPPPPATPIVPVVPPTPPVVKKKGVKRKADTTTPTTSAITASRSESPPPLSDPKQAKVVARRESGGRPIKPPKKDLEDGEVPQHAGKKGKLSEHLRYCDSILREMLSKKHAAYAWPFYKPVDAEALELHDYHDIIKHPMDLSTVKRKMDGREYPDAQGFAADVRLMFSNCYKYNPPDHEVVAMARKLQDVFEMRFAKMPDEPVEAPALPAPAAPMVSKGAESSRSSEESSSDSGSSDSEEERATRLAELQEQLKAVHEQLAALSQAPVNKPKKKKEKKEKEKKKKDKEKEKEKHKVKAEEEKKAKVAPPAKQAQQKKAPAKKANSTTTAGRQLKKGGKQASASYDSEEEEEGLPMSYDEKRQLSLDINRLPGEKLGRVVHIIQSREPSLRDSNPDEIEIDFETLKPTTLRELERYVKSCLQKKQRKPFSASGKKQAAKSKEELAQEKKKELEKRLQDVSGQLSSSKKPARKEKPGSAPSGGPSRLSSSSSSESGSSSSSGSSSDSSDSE
Method: as §1, §2, §3, §4

[3] = biological target: T1, Brd4 (S) (Homo sapiens, UniProt O60885); test: Time-dependent BET degradation, immunoblot, HEK293 cells; set-up: dose or concentration left out as unconfirmed; details: timecourse 0-8 h
T1 construct: endogenous in cells; host or cells: HEK293, HeLa
Method: as §1, §2
as §3, with “(3×10^5)” for “(5×10^5)”, “(0.5×10^6)” for “(1×10^6)”, “1 μM concentration,” for “the desired concentration (1 nM-10 μM),”, “incubation for the desired time (0-8 h),” for “6 h treatment time,”, “(20,000 g,” for “(20,000g,”, “(Invitrogen).” for “(Invitrogen.”
as §4, with “FIG. 4” for “FIG. 3”, “following 1 μM” for “following”, “treatment at various time points” for “treatment”, “with” for “with increasing concentrations of”, “version 8).” for “version 8)”
(§5) T½ (h) is the time required to deplete 50% of the protein relative to DMSO

[4] = biological target: T2, Brd4 (L) (Homo sapiens, UniProt O60885); test: as above; set-up: dose or concentration left out as unconfirmed; details: timecourse 0-8 h
T2 construct: endogenous in cells; host or cells: HEK293, HeLa
Method: as §1, §2
as §3, with “(3×10^5)” for “(5×10^5)”, “(0.5×10^6)” for “(1×10^6)”, “1 μM concentration,” for “the desired concentration (1 nM-10 μM),”, “incubation for the desired time (0-8 h),” for “6 h treatment time,”, “(20,000 g,” for “(20,000g,”, “(Invitrogen).” for “(Invitrogen.”
as §4, with “FIG. 4” for “FIG. 3”, “following 1 μM” for “following”, “treatment at various time points” for “treatment”, “with” for “with increasing concentrations of”, “version 8).” for “version 8)”
as §5

[5] = biological target: T1, Brd4 (S); test: Concentration-dependent BET degradation, immunoblot, HeLa cells; details: 6 h treatment, 1 nM-10 μM; for Dmax: read-out: Dmax (%) maximum degradation observed
Method: as §1, §2, §3, §4

[6] = biological target: T2, Brd4 (L); test: as above; details: 6 h treatment, 1 nM-10 μM; for Dmax: read-out: Dmax (%) maximum degradation observed
Method: as §1, §2, §3, §4

[7] = biological target: T1, Brd4 (S); test: Concentration-dependent BET degradation, immunoblot, HEK293 cells; details: 6 h treatment, 1 nM-10 μM; for Dmax: read-out: Dmax (%) maximum degradation observed
Method: as §1, §2, §3, §4

[8] = biological target: T2, Brd4 (L); test: as above; details: 6 h treatment, 1 nM-10 μM; for Dmax: read-out: Dmax (%) maximum degradation observed
Method: as §1, §2, §3, §4

[9] = system: PARP; test: Immunoblot of total and cleaved PARP in MV4-11 cells; details: MV4-11, 6 h
Method: MV4-11 (0.7×10^6 cells/mL) were seeded in 10 cm plates (10 mL DMEM supplemented with 10% FBS and L-glutamine) overnight before treatment with compounds at the desired concentration and with a final DMSO concentration of 0.1% v/v. After 6 h incubation time, cells were washed 2× with DPBS (Gibco) and lysed using 85 μL RIPA buffer (Sigma-Aldrich) supplemented with cOmplete Mini EDTA-free protease inhibitor cocktail (Roche) and benzonase. Lysates were clarified by centrifugation (20,000 g, 10 min, 4° C.) and the total protein content of the supernatant was quantified using a Bradford colorimetric assay. Samples were prepared using equal amounts of total protein and LDS sample buffer (Invitrogen). For immunoblot analysis, the following antibodies were used: anti-Brd2 (ab139690, 1:2,000 dilution), anti-Brd3 (ab50818, 1:500 dilution), anti-Brd4 (ab128874, 1:1,000 dilution), anti-c-myc (ab32072, 1:1,000 dilution), anti- total PARP (BD Bioscience #556494; 1:1,000 dilution), anti-cleaved PARP (CST-9541T, 1:1,000 dilution), and anti-Tubulin hFAB-rhodamine (BioRad, 12004166, 1:10,000 dilution).

Sequence of Brd2 (P25440 whole entry): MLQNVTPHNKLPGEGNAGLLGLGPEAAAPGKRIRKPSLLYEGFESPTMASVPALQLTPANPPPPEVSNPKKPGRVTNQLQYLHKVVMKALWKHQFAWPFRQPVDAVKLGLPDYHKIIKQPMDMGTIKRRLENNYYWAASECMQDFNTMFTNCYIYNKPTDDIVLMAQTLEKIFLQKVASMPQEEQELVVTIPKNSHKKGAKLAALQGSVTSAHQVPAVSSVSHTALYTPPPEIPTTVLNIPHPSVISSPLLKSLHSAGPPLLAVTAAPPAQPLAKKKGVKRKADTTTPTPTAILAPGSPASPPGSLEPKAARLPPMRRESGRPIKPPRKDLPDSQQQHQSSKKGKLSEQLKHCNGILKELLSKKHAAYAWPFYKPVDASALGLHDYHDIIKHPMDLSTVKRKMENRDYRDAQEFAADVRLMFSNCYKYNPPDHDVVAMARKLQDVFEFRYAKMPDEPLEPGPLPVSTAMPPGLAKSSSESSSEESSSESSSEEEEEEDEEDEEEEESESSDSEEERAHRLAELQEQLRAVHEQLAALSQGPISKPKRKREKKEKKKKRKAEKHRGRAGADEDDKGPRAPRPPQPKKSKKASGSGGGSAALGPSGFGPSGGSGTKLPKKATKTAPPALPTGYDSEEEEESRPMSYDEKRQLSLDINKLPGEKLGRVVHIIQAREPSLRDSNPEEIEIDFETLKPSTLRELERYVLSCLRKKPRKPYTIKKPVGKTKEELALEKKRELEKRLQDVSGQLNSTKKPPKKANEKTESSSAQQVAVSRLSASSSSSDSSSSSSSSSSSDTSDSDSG

DC50 [1] [nM] | Dmax [1] [%] | DC50 [2] [nM] | Dmax [2] [%] | Dmax [3] [%] | Dmax [4] [%] | DC50 [5] [nM] | Dmax [5] [%] | DC50 [6] [nM] | Dmax [6] [%] | DC50 [7] [nM] | Dmax [7] [%] | DC50 [8] [nM] | Dmax [8] [%] | Structure (SMILES) | increase in C-PARP compared with inhibitor and negative control [9] | cleaved PARP ([9]; increasing concentrations) | total PARP levels ([9]; increasing concentrations)
51 to 500 | ≥ 71 | ≤ 50 | ≥ 71 | 100 | 96 | ≤ 50 | ≥ 71 | 51 to 500 | ≥ 71 | ≤ 50 | ≥ 71 | ≤ 50 | ≥ 71 | CCCC(NC(=O)/C(C#N)=C/c1cccc(Br)n1)c1ccc(OCC=NOCC(=O)NCCOCCOCCOCCOCCOCCNC(=O)c2ccc3c(c2)[C@H](Nc2ccc(Cl)cc2)C[C@H](C)N3C(C)=O)cc1 (stereo partly drawn) [Example 05IB3] | – | – | –
51 to 500 | 26 to 50 | 51 to 500 | 51 to 70 | 97 | 100 | ≤ 50 | ≥ 71 | 51 to 500 | ≥ 71 | ≤ 50 | ≥ 71 | ≤ 50 | ≥ 71 | CCCC(NC(=O)/C(C#N)=C/c1cccc(Br)n1)c1ccc(OCCOCCOCCOCCOCCOCCOCCNC(=O)c2ccc(-c3ccc4c(c3)[C@H](Nc3ccc(Cl)cc3)C[C@H](C)N4C(C)=O)cc2)cc1 (stereo partly drawn) [Example 05IB6] | – | – | –
≤ 50 | 51 to 70 | ≤ 50 | 51 to 70 | 96 | 96 | ≤ 50 | ≥ 71 | ≤ 50 | ≥ 71 | ≤ 50 | ≥ 71 | ≤ 50 | ≥ 71 | CCCC(NC(=O)/C(C#N)=C/c1nccs1)c1ccc(OCCOCCOCCOCCOCCOCCOCCNC(=O)c2ccc(-c3ccc4c(c3)[C@H](Nc3ccc(Cl)cc3)C[C@H](C)N4C(C)=O)cc2)cc1 (stereo partly drawn) [Example 05IB9] | greater than inhibitor (I-BET726) alone and the negative control (05IB11) | increase | depletion
